Measurements taken from US20030162759A1, “Aldosterone blocker therapy to prevent or treat inflammation-related disorders” (priority 2000, published 2003).
Several values for one entry are separate records, joined by “and”; a condition that tells them apart may be missing. Equal entries are not always repeated. Entries after “also recorded” stand apart in the source; their conditions may differ.

Key:
Type in all cases: in vivo, rat
[1] = tested on: Vascular Cell Adhesion Molecule-1 (VCAM-1); assay: Assay C: VCAM-1 relative mRNA expression in heart (TaqMan); details: for VCAM, Mean / VCAM: mRNA; for VCAM, Mean: group mean; for VCAM: individual rats
Method: (§1) The procedure of Assay B was expanded upon in a further study. […] Myocardial tissue from animals in each treatment group was examined after 7, 14, or 30 days of treatment.
(§2) Potassium chloride supplementation was added to the saline solution in order to prevent the potential hypokalemia associated with aldosterone excess.
(§3) At the time of the surgery, an Alzet 2002 osmotic minipump (Alza Corp., Palo Alto, Calif.) containing either vehicle (9% ethanol/87% propylene glycol/4% dH2O) or 1.0 mg/mL d-aldosterone (Sigma Chemical, St. Louis, Mo.) was inserted subcutaneously at the nape of the neck. Aldosterone was administered at a dose of 0.75 g/hour. […] Animals were sacrificed from each group (n=8-13) after 7, 14, or 30 days of treatment.
(§4) The fluorogenic 5′-nuclease assay (TaqMan PCR) using Applied Biosystems' 7700 Sequence Detection System (Applied Biosystems, Foster City, Calif.) allowed for real time detection/quantitation of a specific gene by monitoring the increase in fluorescence of a gene-specific, dye-labeled oligonucleotide probe. Probes for target and reference genes were labeled at the 5′-end with a 6-carboxyfluorescein (6FAM) reporter dye and at the 3′-end with a 6-carboxy-N,N,N′,N′-tetramethylrhodamine (TAMRA) quencher dye. When the probe was annealed to the target gene, fluorescence of 6FAM was prevented by the close proximity of TAMRA. The exonuclease activity of Taq polymerase released the dyes from the oligonucleotide probe by displacing the probe from the target sequence resulting in fluorescence excitation in direct proportion to the amount of target message present. Data analysis was performed using the Sequence Detection System software from Applied Biosystems.
All primers and probes were designed using Primer Express software supplied with the 7700 Sequence Detection System and synthesized by Applied Biosystems. Standard curves using 5-fold dilutions of total RNA (from 200 ng to 320 pg) were performed to determine the efficiency of each primer/probe set in the TaqMan reaction prior to the analysis of the experimental samples. Primer/probe sets were designed from known sequences of rat genes to be analyzed. All target gene values were normalized to a reference gene, constitutively expressed cyclophilin. Primer/probe set sequences can be found in Table 8.
RNA was extracted from frozen (−80° C.) rat heart tissue using the Totally RNA Isolation Kit (Ambion, Inc., Austin, Tex.). Tissue was crushed using a stainless steel mortar and pestle, which had been chilled to −80° C. and transferred to a dounce homogenizer (Kontes, Vineland, N.J.) containing 3-10 mL cold denaturation buffer. Tissue was homogenized and transferred to a sterile, 15 mL polypropylene centrifuge tube. An equal volume of phenol:chloroform:isoamyl alcohol (25:24:1) was added, samples were shaken vigorously for 1 min, and incubated on ice for at least 15 min. Samples were centrifuged for 30 min at 10,000 g. The aqueous phase was removed, 1/10 volume of a sodium acetate solution (3.0 M NaOAc pH 4.5) was added, samples were shaken or inverted for 10 seconds, and acid-phenol (premixed with isoamyl alcohol):chloroform (5:1, Ambion, Inc.) was added at an volume equivalent to the starting sample volume. Samples were shaken vigorously for 1 min, followed by a 15-min incubation on ice, and centrifuged for 30 min at 10,000 g. The aqueous phase removed and placed in a clean polypropylene tube. An equal volume of isopropanol (Sigma, St. Louis, Mo.) was added and the samples were mixed and incubated overnight at −20° C. The samples were centrifuged for 30 min at 10,000 g, the supernatant was removed and the RNA pellet was resuspended in DNAse/RNAse-free water. Samples were frozen at −80° C. for at least 2 hours, thawed on wet ice, and diluted for quantitation.

Collagen III = assay: Assay C: Collagen III mRNA in left ventricle (TaqMan); details: for Collagen-III mRNA: individual rats; for Collagen-III mRNA, Mean: group mean
Method: as §1, §2, §3
Following exsanguination, hearts and kidneys were isolated, removed, rinsed in cold phosphate-buffered saline, and blotted dry. Kidneys were immediately bifurcated through the long axis with a razor blade and placed in 10% neutral buffered formalin (NBF, Richard-Allen Scientific, Kalamazoo, Mich.). For the hearts, the right ventricle (RV) was cut away from the left ventricle (LV), both ventricles were weighed using a Mettler AE163 balance (Mettler-Toledo, Inc., Hightstown, N.J.), and the RV was placed in 10% NBF. A 2 mm coronal slab of the LV apex was removed and frozen with dry ice/isopentane for analysis of gene expression and the remaining portion of the LV was placed in 10% NBF for fixation. Final wet trimming was completed after 3-4 days fixation where a second 2 mm coronal slab was removed for hydroxyproline analysis and a third 2 mm slab was removed from the equatorial region for histology.
as §4
Primers and probes were designed using Oligo Primer Analysis Software, Version 5.0 (National Biosciences Inc. (NBI)-Wojciech Rychlik, Cascade, Colo.). Primers were synthesized by Life Technologies (Grand Island, N.Y.) and probes were synthesized by Applied Biosystems. Primer/probe sets were designed from known sequences of rat genes to be analyzed. All target gene values were normalized to a reference gene, constitutively expressed cyclophilin. Primer/probe sets sequences can be found in Table 8
RNA was extracted from frozen (−70° C.) left ventricle (LV) tissue (approximately 10-20 mg) using 1.5 mL RNA-STAT 60 according to manufacturer's instructions (Leedo Medical Laboratories, Inc., Houston, Tex.). Briefly, tissues were homogenized using a tissue homogenizer equipped with a 5 mm probe (Ultra-Turrax T8 Homogenizer, IKA Works, Inc. Wilmington, N.C.). Following homogenization, an equal volume of molecular grade chloroform (Sigma Chemical Co., St. Louis, Mo.) was incubated with periodic mixing for 10 min at room temperature. Samples were centrifuged at 12,000 g for 10 min and RNA was precipitated from the top layer by adding an equal volume of molecular grade isopropanol (Sigma Chemical Co.) followed by an overnight incubation at −80° C.

[2] = tested on: Atrial natriuretic factor (ANP); assay: Assay C: ANP mRNA in left ventricle (TaqMan)
Method: as §1, §2
At the time of the surgery, an Alzet 2002 osmotic minipump (Alza Corp., Palo Alto, Calif.) containing either vehicle (9% ethanol/87% propylene glycol/4% dH2O) or 1.0 mg/mL d-aldosterone (Sigma Chemical, St. Louis, Mo.) was inserted subcutaneously at the nape of the neck. Aldosterone was administered at a dose of 0.75 g/hour. […] Animals were sacrificed from each group (n=8-13) after 7, 14, or 30 days of treatment. […]
as §4, with “Probes for target and reference genes were labeled at the 5′-end with a 6-carboxyfluorescein (6FAM) reporter dye and at the 3′-end with a 6-carboxy-N,N,N′,N′-tetramethylrhodamine (TAMRA) quencher dye.” left out, “Data analysis was performed using the Sequence Detection System software from Applied Biosystems.” left out

[3] = tested on: stroke-prone spontaneously hypertensive rats; assay: Stroke-prone spontaneously hypertensive rats: survival and cerebral injury (FIGS. 37-38); details: stroke-prone spontaneously hypertensive rats (FIGS. 37, 38)
aldosterone infused rats = assay: Assay B aldosterone infusion model: myocardial fibrosis (interstitial collagen volume fraction, hydroxyproline); details: aldosterone/salt treatment, 4 weeks
Method: Assay B: In vivo Aldosterone Infusion Model Male Sprague Dawley rats (n=39; BW=250 g) […] Uni-nephrectomy performed during implantation of mini-pumps 2. Aldosterone (0.75 mg/hr, sc via aizet minipump) 2. […] 1. […] Sacrifice after 4 weeks. Hearts were stained with hematoxylin&eosin and the collagen specific dye picro-sirius red and were analyzed for determination of interstitial collagen volume fraction and morphologic abnormalities (i.e. necrosis, vascular injury). Hydroxyproline concentration was measured in the frozen hearts.

## COC(=O)[C@@H]1CC2=CC(=O)CC[C@]2(C)[C@@]23O[C@@H]2C[C@@]2(C)[C@@H](CC[C@@]24CCC(=O)O4)[C@H]13 [eplerenone, Pregn-4-ene-7,21-dicarboxylic acid, 9,11-epoxy-17-hydroxy-3-oxo-, γ-lactone, methyl ester, (7α, 11α, 17β) -]
[1]; 7 days of treatment
  VCAM, Mean: 0.56 AU
[1]; 14 days of treatment
  VCAM, Mean: 0.83 AU
[1]; 30 days of treatment
  VCAM, Mean: 1.04 AU
[1]; 7 days of treatment, listed as Eplerenone + aldosterone + salt
  VCAM: 0.67 AU and 0.58 AU and 0.22 AU and 0.57 AU and 0.53 AU and 1.00 AU
[1]; 14 days of treatment, listed as Eplerenone + aldosterone + salt
  VCAM: 0.54 AU and 0.66 AU and 0.61 AU (2×) and 0.67 AU and 0.86 AU and 1.00 AU and 0.68 AU (2×) and 1.60 AU
[1]; 30 days of treatment, listed as Eplerenone + aldosterone + salt
  VCAM: 0.79 AU and 0.52 AU and 0.57 AU and 0.61 AU
[1]; time course 7, 14, 30 days, eplerenone 100 mg/kg/day
  VCAM-1 mRNA expression in myocardium: significantly reduced; also recorded: inhibition of early time-course expression of myocardial ICAM-1 and VCAM-1
Collagen III; 14 days of treatment, relative to cyclophilin expression, listed as Eplerenone + aldosterone + salt
  Collagen-III mRNA: 0.60 AU (2×) and 1.70 AU and 1.81 AU and 1.80 AU
Collagen III; 30 days of treatment, relative to cyclophilin expression, listed as Eplerenone + aldosterone + salt
  Collagen-III mRNA: 0.72 AU and 0.89 AU and 0.73 AU
Collagen III; mean ± SEM after 7 days of treatment, relative to cyclophilin expression
  Collagen-III (collagen type III mRNA): 1.09 ± 0.21 AU
Collagen III; mean ± SEM after 30 days of treatment, relative to cyclophilin expression
  Collagen-III (collagen type III mRNA): 1.53 ± 0.23 AU
[2]; after 30 days of treatment
  ANP mRNA upregulation: significantly reduced
[2]; mean ± SEM after 30 days of treatment, relative to cyclophilin expression, eplerenone 100 mg/kg/day
  ANP mRNA: 9.20 ± 2.44 AU
[3]
  Cerebral injury: reduced cerebral injury; also recorded: decrease in cerebral injury

## C[C@]12CCC(=O)C=C1CC[C@@H]1[C@@H]2[C@@H](O)C[C@]2(C=O)[C@@H](C(=O)CO)CC[C@@H]12 [aldosterone]
Aldosterone infused rats
  Myocardial fibrosis (interstitial collagen volume fraction, hydroxyproline concentration): absence of myocardial fibrosis
[1]; day 30 of aldosterone+salt treatment, did not reach statistical significance
  VCAM-1 gene expression increase: increased two-fold
[1]; 30 days of treatment
  VCAM, Mean: 2.14 AU
[1]; 7 days of treatment, listed as Aldosterone + salt
  VCAM: 0.85 AU and 0.61 AU and 0.94 AU and 0.27 AU
[1]; 14 days of treatment, listed as Aldosterone + salt
  VCAM: 0.89 AU and 0.69 AU and 0.84 AU and 0.72 AU
[1]; 30 days of treatment, listed as Aldosterone + salt
  VCAM: 0.72 AU
Collagen III; Table 9.14, 7-day protocol, listed as Aldosterone + salt
  Collagen-III mRNA: 0.65 AU and 1.30 AU
Collagen III; 14 days of treatment
  Collagen-III mRNA, Mean: 1.08 AU
Collagen III; 30 days of treatment
  Collagen-III mRNA, Mean: 1.39 AU
Collagen III; 14 days of treatment, relative to cyclophilin expression, listed as Aldosterone + salt
  Collagen-III mRNA: 0.76 AU and 1.80 AU and 0.44 AU and 1.39 AU and 0.59 AU
Collagen III; 30 days of treatment, relative to cyclophilin expression, listed as Aldosterone + salt
  Collagen-III mRNA: 0.75 AU and 0.58 AU and 0.72 AU
